Data taken from patent US11078202B2, “β-lactamase inhibitor and use thereof” (priority 2018, dated 2021).
Counter-ions that a name gives are not always drawn.

How the values were obtained:
Type in all cases: cell-based
[1] = system: Klebsiella pneumoniae XNWB 0002; assay: MIC assay of test compounds combined with imipenem (4 μg/mL); details: imipenem 4 μg/mL fixed
In short: (§1)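 Strains were revived from −80 °C stocks on TSA, subcultured, and single colonies were resuspended in saline to OD600 0.1-0.15. After a 300-fold dilution in 1.1×CAMHB, cells were combined with diluted compound and a fixed antibiotic. Growth was assessed after 16-20 h at 35±2 °C.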

[2] = system: Klebsiella pneumoniae XNWB 0005; assay: as above; details: imipenem 4 μg/mL fixed
In short: as §1

[3] = system: Klebsiella pneumoniae XNWB 0004; assay: as above; details: imipenem 4 μg/mL fixed
In short: as §1

[4] = system: Klebsiella pneumoniae XNWB 0001; assay: as above; details: imipenem 4 μg/mL fixed
In short: as §1

[5] = system: Acinetobacter baumannii XNWB 0007; assay: as above; details: imipenem 4 μg/mL fixed
In short: as §1

[6] = system: Klebsiella pneumoniae XNWB 0006; assay: as above; details: imipenem 4 μg/mL fixed
In short: as §1

[7] = system: Pseudomonas aeruginosa XNWB 0008; assay: as above; details: imipenem 4 μg/mL fixed
In short: as §1

[8] = system: Klebsiella pneumoniae XNWB 0003; assay: as above; details: imipenem 4 μg/mL fixed
In short: as §1

[9] = system: Klebsiella pneumoniae XNWB 0002; assay: MIC assay of test compounds combined with ceftazidime (8 μg/mL); details: ceftazidime 8 μg/mL fixed
In short: as §1

[10] = system: Klebsiella pneumoniae XNWB 0005; assay: as above; details: ceftazidime 8 μg/mL fixed
In short: as §1

[11] = system: Klebsiella pneumoniae XNWB 0004; assay: as above; details: ceftazidime 8 μg/mL fixed
In short: as §1

[12] = system: Klebsiella pneumoniae XNWB 0001; assay: as above; details: ceftazidime 8 μg/mL fixed
In short: as §1

[13] = system: Acinetobacter baumannii XNWB 0007; assay: as above; details: ceftazidime 8 μg/mL fixed
In short: as §1

[14] = system: Klebsiella pneumoniae XNWB 0006; assay: as above; details: ceftazidime 8 μg/mL fixed
In short: as §1

[15] = system: Pseudomonas aeruginosa XNWB 0008; assay: as above; details: ceftazidime 8 μg/mL fixed
In short: as §1

[16] = system: Klebsiella pneumoniae XNWB 0003; assay: as above; details: ceftazidime 8 μg/mL fixed
In short: as §1

| Compound | The minimum concentration of test compounds combined with imipenem (4 μg/mL) for bacteriostasis [1] | The minimum concentration of test compounds combined with imipenem (4 μg/mL) for bacteriostasis [2] | The minimum concentration of test compounds combined with imipenem (4 μg/mL) for bacteriostasis [3] | The minimum concentration of test compounds combined with imipenem (4 μg/mL) for bacteriostasis [4] | The minimum concentration of test compounds combined with imipenem (4 μg/mL) for bacteriostasis [5] | The minimum concentration of test compounds combined with imipenem (4 μg/mL) for bacteriostasis [6] | The minimum concentration of test compounds combined with imipenem (4 μg/mL) for bacteriostasis [7] | The minimum concentration of test compounds combined with imipenem (4 μg/mL) for bacteriostasis [8] | The minimum concentration of test compounds combined with ceftazidime (8 μg/mL) for bacteriostasis [9] | The minimum concentration of test compounds combined with ceftazidime (8 μg/mL) for bacteriostasis [10] | The minimum concentration of test compounds combined with ceftazidime (8 μg/mL) for bacteriostasis [11] | The minimum concentration of test compounds combined with ceftazidime (8 μg/mL) for bacteriostasis [12] | The minimum concentration of test compounds combined with ceftazidime (8 μg/mL) for bacteriostasis [13] | The minimum concentration of test compounds combined with ceftazidime (8 μg/mL) for bacteriostasis [14] | The minimum concentration of test compounds combined with ceftazidime (8 μg/mL) for bacteriostasis [15] | The minimum concentration of test compounds combined with ceftazidime (8 μg/mL) for bacteriostasis [16] |
| --- | --- | --- | --- | --- | --- | --- | --- | --- | --- | --- | --- | --- | --- | --- | --- | --- |
| N=C(N)N1CCC(NCCc2cc([C@@H]3CC4(CC4)[C@@H]4CN3C(=O)N4OS(=O)(=O)O)no2)CC1 [Example 47, (1R,4S)-4-(5-(2-((1-amidinopiperidin-4-yl)amino)ethyl)isoxazol-3-yl)-6-oxo-5,7-diazaspiro[bicyclo[3.2.1]octane-2,1′-cyclopropan]-7-yl sulfate] | A (A: <8 μg/mL) | A (A: <8 μg/mL) | A (A: <8 μg/mL) | A (A: <8 μg/mL) | C (C: 16-128 μg/mL) | A (A: <8 μg/mL) | A (A: <8 μg/mL) | A (A: <8 μg/mL) | A (A: <8 μg/mL) | C (C: 16-128 μg/mL) | C (C: 16-128 μg/mL) | B (B: 8-16 μg/mL) | C (C: 16-128 μg/mL) | B (B: 8-16 μg/mL) | C (C: 16-128 μg/mL) | C (C: 16-128 μg/mL) |
| N[C@H]1C[C@@H](c2cc([C@@H]3CC4(CC4)[C@@H]4CN3C(=O)N4OS(=O)(=O)O)no2)C1 [Example 26, (1R,4S)-4-(5-((1R,3R)-3-aminocyclobutyl)isoxazol-3-yl)-6-oxo-5,7-diazaspiro[bicycle [3.2.1]octane-2,1′-cyclopropan]-7-yl sulfate] | A (A: <8 μg/mL) | A (A: <8 μg/mL) | A (A: <8 μg/mL) | A (A: <8 μg/mL) | C (C: 16-128 μg/mL) | A (A: <8 μg/mL) | A (A: <8 μg/mL) | A (A: <8 μg/mL) | A (A: <8 μg/mL) | A (A: <8 μg/mL) | A (A: <8 μg/mL) | A (A: <8 μg/mL) | C (C: 16-128 μg/mL) | A (A: <8 μg/mL) | B (B: 8-16 μg/mL) | A (A: <8 μg/mL) |
